One assay deals with T1, FXR (Homo sapiens, UniProt Q96RI1).
T1 construct: His6-tag and TEV site (N, cleaved yes); made in house; host or cells: E. coli BL21 (DE3)
T1 sequence (Q96RI1 244-472 isoform Q96RI1-2): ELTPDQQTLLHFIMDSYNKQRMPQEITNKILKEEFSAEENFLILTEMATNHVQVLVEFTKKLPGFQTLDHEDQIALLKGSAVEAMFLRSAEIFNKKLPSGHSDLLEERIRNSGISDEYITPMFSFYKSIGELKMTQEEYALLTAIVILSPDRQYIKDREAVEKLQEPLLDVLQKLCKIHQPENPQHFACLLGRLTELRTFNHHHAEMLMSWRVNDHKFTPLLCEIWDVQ
Description: ITC measurement FXR LBD. More on the design: key: n.b.: no binding; w.b.: weak binding. Particulars: 50 μM protein, 250 μM compound, 25 °C. It is filed as binding. As for the experimental part: (§1) For hit validation, we employed secondary assays with orthogonal readouts to confirm fragment activities. Biochemical activity assays were chosen for the enzymes sEH, LTA4H, and 5‐LOX. […] RXRα and FXR modulation was assessed in cell‐based hybrid reporter gene assays. All ten compounds were tested at a single concentration of 500 μM in the sEH and LTA4H activity assays and with a concentration of 100 μM on 5‐LOX, RXRα, and FXR. Fragments showing an inhibition greater than 50 % (sEH‐H and LTA4H) or greater than 70 % (5‐LOX) as well as the hits determined in the DSF experiments were further characterized in full concentration‐response curves between 0.1 and 1000 μM. […] As alternative cell‐free assay we employed isothermal titration calorimetry (ITC) to determine binding affinity of the fragments towards the LBDs of both nuclear receptors. ITC was performed with a protein concentration of 50 μM and compound concentrations of 250 μM. […]
Final concentration per well was 3 nM sEH-Fl, 0.001 % Triton X-100, 25 mM Bis-tris, 0.1 mg/ml BSA, pH = 7.0, 1.6% DMSO […]
(ITC needs no label: the signal is the heat of the interaction.)

The test system of assay [1] is sEH, LTA4H, 5‐LOX, FXR, RXR. In words: Orthogonal (secondary) assays, summary statements over the targets. On the procedure:
as §1
% (5-LOX) as well as the hits determined in the DSF experiments were further measured with concentrations between 1000 µM and 0.1 µM (sEH-H and LTA4H) and between 300 µM and 1 µM (5-LOX). […] The 5-LOX activity assay was performed with one point per concentration and repeated 3 times Raw data was first analyzed in Microsoft Office Excel (2013), before IC50 curves were plotted and further analyzed using GraphPad Prism 7 and GraphPad Prism 8 for the shown graphs .
The eight approved drugs were measured in the orthogonal assay systems analogous to the fragments. […]
For the sEH-H and LTA4H, they were measured as triplicate in concentrations between 1000 µM and 1 µM and each measurement was repeated three times. For the 5-LOX they were measured as single point measurement in three different experiments with concentrations between 300 µM and 1 µM. […]
The sEH-H activity assay was performed adapted from Hahn et al.5 and Lukin et al.6. […] The Plate was measured every minute for 45 min. […]

The target in a further assay is T2, sEH-H (Homo sapiens, UniProt P34913).
T2 construct: For the expression of sEH-H and sEH-Fl transformed E.coli BL21 (DE3) cells were grown in 5052; made in house; host or cells: E. coli BL21 (DE3)
T2 sequence (P34913 235-555 limits assumed): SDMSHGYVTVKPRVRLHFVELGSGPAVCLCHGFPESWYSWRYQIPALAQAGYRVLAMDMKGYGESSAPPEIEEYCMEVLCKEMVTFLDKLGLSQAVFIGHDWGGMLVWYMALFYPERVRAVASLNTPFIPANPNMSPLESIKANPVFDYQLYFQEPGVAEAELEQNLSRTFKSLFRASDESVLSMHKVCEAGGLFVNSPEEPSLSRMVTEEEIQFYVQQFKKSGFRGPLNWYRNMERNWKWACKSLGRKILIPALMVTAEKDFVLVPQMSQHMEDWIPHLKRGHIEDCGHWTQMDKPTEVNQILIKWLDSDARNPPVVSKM
Description: ITC measurement sEH-H. The format is binding. Particulars: 25 °C, read-out: sEH K d.

Regarding `c1ccc(N2CCNCC2)nc1` [Compound 1], at FXR, the “FXR K d” value was “n.b”.
Turning to `Cc1cc(=O)n(-c2ccc(C)c(C)c2)[nH]1` [Compound 2], in assay [1], the “confirmation of dual DSF hits in the orthogonal experiments” value (“confirmation of dual DSF hits” below) is recorded as “confirmed active”.
For the molecule `Oc1ccc2cc[nH]c2c1` [Compound 5], the “FXR K d” value on FXR is reported as “n.b”.
On the same count and under the same terms, the value for `Clc1ccc2c(c1)Nc1ccccc1CC2` [Compound 8] was “w.b”.
On to `Oc1ccc(-c2ccc(F)cc2F)cc1` [Compound 9], for which, on sEH-H, the Kd is 3.5 µM. In addition, the “confirmation of dual DSF hits” value in assay [1] is “confirmed active”.
For the molecule `Fc1ccc(-c2c[nH]c3ccccc23)cc1` [Compound 10], at sEH-H, the Kd turned out to be 0.86 µM. Moreover, the “FXR K d” value on FXR is “n.b”. Moreover, the “confirmation of dual DSF hits” value in assay [1] is “confirmed active”.

The values above are taken from paper PMC8049054, “Systematic Assessment of Fragment Identification for Multitarget Drug Design” (Chemmedchem, 2021).
